The source of these data is publication PMC2908543, “Uropathogenic Escherichia coli Modulates Immune Responses and Its Curli Fimbriae Interact with the Antimicrobial Peptide LL-37” (PLoS Pathogens, 2010).

Experiment [1] deals with curli-mediated biofilm formation by E. coli. The experiment can be described thus: Effect on formation of biofilm, crystal violet microtiter plate. The format is cell-based, Escherichia coli. As for the experimental part:
To measure the ability of the bacteria to adhere and to form biofilm a crystal violet assay in polystyrene microtiter plates (Costar, Corning, NY, USA) was performed. Bacteria were grown in Luria-Bertani (LB) broth without salt for 24 h at 37°C without shaking. Biofilm was then stained with crystal violet (3%). The dye was solubilized with ethanol (95%) and the optical density was measured at 570 nm.
Plates were filled with 90 µL bacterial culture of planktonic cells and 10 µL of aqueous solution of LL-37 in the same concentrations as in the susceptibility assay. As control peptides, sLL-37 (Innovagen AB) and VIP [27] with similar structural properties as LL-37 were utilized. The plates were incubated without shaking at 37°C for 20 h. After incubation, the amount of biofilm formed was determined as described above.

In experiment [2] the test system is recombinant polymerized CsgA. The experiment can be described thus: Precipitation of LL-37 with polymerized CsgA, Western blot of supernatant. The format is binding, Escherichia coli. The settings on record: 0.1 µM LL-37 in PBS with 5 µM recombinant polymerized CsgA, 1 h at 37°C. As for the experimental part:
(§1) CsgA-His6 and CsgG, a lipoprotein that is required for CsgA secretion, were overexpressed in LSR12 (C600::csg). The purification procedure of recombinant CsgA-His6 was performed as previously described with some modifications. The filtrate was incubated with nickel-nitrilotriacetic acid (Ni-NTA) agarose (Invitrogen) for 1 h at 4°C with shaking, centrifuged at 200×g for 5 min and transferred to a polyprep chromatography column (Bio-Rad, Hercules, CA, USA). To confirm protein identity of CsgA-His6, the isolated protein was prepared and subjected to SDS-PAGE as described below, and thereafter the protein was transferred from the gel to a polyvinylidene fluoride (PVDF) membrane (Invitrogen) at 160 mA for 60 min. The band of 15 kDa, corresponding to the molecular weight of CsgA-His6, was excised from the membrane stained with Coomassie Blue and analysed with N-terminal sequence analysis as has been described. Since it has previously been shown that CsgA-His6 has the same polymerizing properties as wild-type CsgA [59], we refer to CsgA-His6 as CsgA.
LL-37 (0.1 µM in PBS) was mixed with 5 µM wild-type curli, or 5 µM recombinant polymerized CsgA. As control, the same concentration of LL-37 without curli or CsgA was utilized. […] An aliquot of the supernatants was analyzed for the presence of LL-37 with Western blot. […]
A general note: In western blotting, separated proteins are transferred to a membrane and probed.

The target of another experiment is T1, polymeric CsgA (Escherichia coli, UniProt P28307).
T1 construct: made in house; host or cells: E. coli LSR12 (C600::csg), co-expressed with CsgG
As to the kind of experiment: Surface plasmon resonance, polymeric CsgA. The settings on record: polymeric CsgA immobilized (7000 response units), 0.1 µM peptide, 20 µl/min for 3 min, HBS-EP, Biacore 3000; binding constants not determinable. As for the experimental part: Binding analysis of LL-37 to both monomeric and polymeric CsgA was performed with surface plasmon resonance (Biacore 3000 instrument; Biacore AB, Uppsala, Sweden). Both monomeric and polymeric CsgA was immobilized on a CM5 sensor chip (Biacore AB) surface by amine coupling. The chip surface was normalized in 70% glycerol and lanes on the chip were activated with injection of 35 µL 0.05 M N-hydroxysuccinimide (NHS)/0.2 M N-ethyl-N′-[3-dimethylamino) propyl]carbodiimide (EDC). Polymeric or monomeric CsgA (1 µM in 10 mM sodium acetate, pH 4.5) was then immobilized on the chip to 7000 response units and 2000 response units, respectively. After immobilization, the lanes were subjected to 60 µL ethanolamine (1 M, pH 8.5) to deactivate remaining activated carboxylic groups. One lane, activated and deactivated, was used as negative control (without addition of CsgA). Standard Biacore HBS-EP (Biacore AB) was utilized as running buffer, and 0.1 µM LL-37, sLL-37 or VIP were injected at 20 µl/min for 3 min. The surface was regenerated after each cycle with 100 mM HCl.

The target of another experiment is T2, CsgA polymerization (Escherichia coli, UniProt P28307).
T2 construct: made in house; host or cells: E. coli LSR12 (C600::csg), co-expressed with CsgG
As to the kind of experiment: CsgA polymerization, Thioflavin T assay, Tecan plate reader. The settings on record: 20 µM ThT, 37°C. The format is biochemical. As for the experimental part: as §1
Purified recombinant monomeric CsgA (10 µM) with or without different concentrations of the peptides LL-37, sLL-37 or VIP was mixed with 20 µM of the fiber-specific fluorescent probe ThT (Sigma-Aldrich). Fluorescence was measured with a Tecan infinite M200 reader (Tecan Nordic AB, Täby, Sweden). The excitation and emission wavelength was 430 and 490 nm, respectively. Measurements were conducted at 37°C every 10 min after shaking the sample for five seconds. Background fluorescence of the peptides themselves was subtracted.

In a further experiment the test system is CsgA fiber formation. As to the kind of experiment: CsgA fiber formation, Thioflavin T, confocal microscopy. It is filed as biochemical, Escherichia coli. As for the experimental part: as §1
Recombinant monomeric CsgA was mixed with equimolar LL-37, sLL-37 or VIP and 20 µM ThT, and incubated over night at 37°C, washed twice, and suspended in 10 mM Kpi, pH 7.2 before mounting in ProLong Gold antifade mounting medium (Invitrogen). Images were acquired on a Leica TCS SP5 confocal microscope using a 20× objective. Fluorescence intensity was quantified using ImageJ software. The difference in fluorescence intensity of CsgA with and without peptides was calculated and corrected for the contribution of fluorescence from the peptides themselves.

Entries after “also recorded” stand apart in the source; their conditions may differ.

T2 sequence (P28307 21-151): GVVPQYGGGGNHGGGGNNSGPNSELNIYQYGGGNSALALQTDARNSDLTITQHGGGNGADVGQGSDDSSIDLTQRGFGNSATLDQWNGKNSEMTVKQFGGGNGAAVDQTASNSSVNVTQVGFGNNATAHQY
T1 sequence (P28307 21-151): as above

Regarding `CC[C@H](C)[C@H](NC(=O)[C@H](CCCCN)NC(=O)[C@H](CCC(=O)O)NC(=O)[C@H](CCCCN)NC(=O)[C@H](CO)NC(=O)[C@H](CCCCN)NC(=O)[C@H](CCCNC(=N)N)NC(=O)[C@H](Cc1ccccc1)NC(=O)[C@H](Cc1ccccc1)NC(=O)[C@H](CC(=O)O)NC(=O)CNC(=O)[C@H](CC(C)C)NC(=O)[C@@H](N)CC(C)C)C(=O)NCC(=O)N[C@@H](CCCCN)C(=O)N[C@@H](CCC(=O)O)C(=O)N[C@@H](Cc1ccccc1)C(=O)N[C@@H](CCCCN)C(=O)N[C@@H](CCCNC(=N)N)C(=O)N[C@H](C(=O)N[C@H](C(=O)N[C@@H](CCC(N)=O)C(=O)N[C@@H](CCCNC(=N)N)C(=O)N[C@H](C(=O)N[C@@H](CCCCN)C(=O)N[C@@H](CC(=O)O)C(=O)N[C@@H](Cc1ccccc1)C(=O)N[C@@H](CC(C)C)C(=O)N[C@@H](CCCNC(=N)N)C(=O)N[C@@H](CC(N)=O)C(=O)N[C@@H](CC(C)C)C(=O)N[C@H](C(=O)N1CCC[C@H]1C(=O)N[C@@H](CCCNC(=N)N)C(=O)N[C@H](C(=O)N[C@@H](CCC(=O)O)C(=O)N[C@@H](CO)C(=O)O)[C@@H](C)O)C(C)C)[C@@H](C)CC)C(C)C)[C@@H](C)CC` [LL-37], the “reduction of biofilm formation” value in experiment [1] (2.5 µM LL-37, wild-type strain expressing curli and cellulose (data not shown)) is “more than 80%”; in experiment [1] (2.5 µM peptide, cellulose-negative, curli-expressing E. coli strain, 37°C, 20 h, two experiments in triplicates), “more than 80%”. The “biofilm-inhibitory versus bactericidal concentrations” value in experiment [1] (qualitative comparison) is “much lower than bactericidal concentrations”. Further, the “LL-37 in supernatants after precipitation” value in experiment [2] is listed as “pronounced decrease of LL-37 in supernatants; also recorded: the levels of LL-37 decreased in the supernatants”. Further, at polymeric CsgA, the “binding / association and dissociation by SPR” value was “higher association with CsgA than the control peptides; also recorded: stronger association and lower dissociation rates”. The “inhibition of CsgA polymerization (ThT fluorescence)” value on CsgA polymerization (10 µM CsgA with different concentrations of peptide) was “inhibited by LL-37 in a dose-dependent manner”; at CsgA polymerization (10 µM CsgA, molar ratio 1∶1 (CsgA∶LL-37), excitation 430 nm, emission 490 nm), “fiber formation was completely inhibited”. Besides, the “fluorescence relative to CsgA alone” value in the experiment on CsgA fiber formation (CsgA with equimolar peptide (1∶1), 20 µM ThT, 20 h at 37°C, CsgA alone = 1 arbitrary unit, corrected for peptide fluorescence, two experiments) is recorded as 0.05 arbitrary units. In the experiment with CsgA fiber formation (molar ratio 1∶1, P = 0.007 versus sLL-37 and P = 0.011 versus VIP), the “inhibition of CsgA fiber formation versus sLL-37 and VIP” value is reported as “significantly stronger than the effect of sLL-37; also recorded: evidently stronger for LL-37”.
